Earlier results, collected in US10335367B2, “Use of selected anticholinergic zwitterions” (Bodor Laboratories, Inc., priority 2015, dated 2019).
Like-named read-outs stand apart in the source and are kept apart here.

Key:
progression of myopia = details: 2% ophthalmic gel; school-aged children

Structure (SMILES)	mean myopia progression at 2 years (myopia progression; 0.01% atropine) [D/year]	mean myopia progression at 2 years (myopia progression; 0.1% atropine) [D/year]	mean myopia progression at 2 years (myopia progression; 0.5% atropine) [D/year]	slowing the progression of myopia (progression of myopia)
CN1[C@@H]2CC[C@H]1C[C@@H](OC(=O)C(CO)c1ccccc1)C2 (stereo partly shown) [atropine]	0.24	0.19	0.15	–
CN1CCN(CC(=O)N2c3ccccc3C(=O)Nc3cccnc32)CC1 [Pirenzepine]	–	–	–	found effective
